Source: US4888287A, “Rapid differentiation of fungi from bacteria using polyene antibiotics” (Eastman Kodak Company, priority 1986, dated 1989)

Tests used:
E. coli = assay: Inhibition of RIND IX reduction by E. coli (gram-negative) in solution (Example 1, Table II); format: cell-based, Escherichia coli (ATCC 25922)
Protocol: (§1) gram-negative microorganism Escherichia coli (ATCC 25922), gram-positive microorganism Staphylococcus aureus (ATCC 25923), and Candida albicans yeast cells (ATCC 14053), brain heart infusion broth (BHI) and Sabaroud's dextrose broth (SAB) from Difco Laboratories (Detroit, Michigan, U.S.A.), and Aspergillus flavus (ATCC 20047), a mold from American Type Culture Collection (Rockville, Maryland, U.S.A.).
(§2) E. coli and S. aureus were grown overnight in BHI broth at 37° C. C. albicans and A. flavus were grown overnight at 25° C. in SAB broth with agitation. […]
(§3) Test solutions were prepared by adding in order: 1.2 ml of HEPES buffer, 50 μl glucose solution, 1.5 ml of RIND IX dispersion, 100 μl of antibiotic solution, 100 μl of cell suspension and 25 μl of ETA solution. […] Optical density readings (OD) were measured at 635 nm at 0 minutes and after incubation at 37° C. for 30 minutes for test and Control solutions, and the change in density (ΔOD) was determined. Table II below lists the results, expressed as corrected percent inhibition of the reduction of the RIND compound. The corrected percent inhibition is calculated by dividing the difference between the ΔOD obtained from the Control without antibiotic and the ΔOD of the test solution, by ΔOD of the Control without antibiotic. All readings were corrected by subtracting readings of the appropriate background control. […]

C. albicans = assay: Inhibition of RIND IX reduction by C. albicans (yeast) in solution (Example 1, Table II); format: cell-based, Candida albicans (ATCC 14053)
Protocol: E. coli and S. aureus were grown overnight in BHI broth at 37° C. C. albicans and A. flavus were grown overnight at 25° C. in SAB broth with agitation. The cells were harvested by centrifugation, washed and resuspended in 0.05 molar N-2-hydroxyethylpiperazine-N'-2-ethanesulfonic acid (HEPES) buffer (pH 7.8).
Dispersions containing RIND compounds were prepared by dissolving, for example, RIND VII from Table I above in N,N-dimethylformamide (DMF) at 16 mg compound per ml of solvent. An aliquot (250 μl) of the resulting solution was added to 500 μl of TRITON X-100 surfactant. This mixture was then added dropwise with stirring to 25 ml of 0.05 molar HEPES buffer.
The following materials were used in this example: stock solutions of RIND IX compound dispersion prepared as described above, glucose (10% in water), trimethyl-1,4-benzoquinone ETA (1.5 mg/ml methanol), and the antibiotics (25 mg/ml in dimethyl sulfoxide, except that filipin was 12.5 mg/ml of solvent). Bacteria and yeast were grown as described above. The approximate final cell concentrations in the assay mixture were 4.2×10^8 cells/ml of E. coli, 7.1×10^8 cells/ml of S. aureus, and 7×10^5 of C. albicans.
Test solutions were prepared by adding in order: 1.2 ml of HEPES buffer, 50 μl glucose solution, 1.5 ml of RIND IX dispersion, 100 μl of antibiotic solution, 100 μl of cell suspension and 25 μl of ETA solution. Cell control solutions contained all reagents except antibiotics. Background controls consisted of both buffer and solution controls. The buffer control contained all reagents except antibiotics and cells. The solution control contained all reagents except cells. Optical density readings (OD) were measured at 635 nm at 0 minutes and after incubation at 37° C. for 30 minutes for test and Control solutions, and the change in density (ΔOD) was determined. […] The corrected percent inhibition is calculated by dividing the difference between the ΔOD obtained from the Control without antibiotic and the ΔOD of the test solution, by ΔOD of the Control without antibiotic. All readings were corrected by subtracting readings of the appropriate background control.
Solutions containing 2.9 ml HEPES, 50 μl of the antibiotic solution, and 100 μl cell solution were incubated at 37° C. for 30 minutes, centrifuged for 10 minutes and decanted. The resulting pellet was then treated with 1.4 ml HEPES, 50 μl glucose solution, 1.5 ml RIND IX dispersion and 25 μl ETA solution, mixed well and the optical densities recorded as described above in Method 1. The corrected percent inhibition data was calculated as described in Method 1 above.

S. aureus = assay: Inhibition of RIND IX reduction by S. aureus (gram-positive) in solution (Example 1, Table II); format: cell-based, Staphylococcus aureus (ATCC 25923); conditions: Method 1, 635 nm, 37° C., 30 min
Protocol: as §1, §2, §3

[1] = Method 1, 635 nm, 37° C., 30 min
[2] = Method 2, preincubation for 1 hour, 635 nm

Compound | Corrected % Inhibition (E. coli; [1]) | Corrected % Inhibition (C. albicans; [1]) | Corrected % Inhibition (S. aureus) | Corrected % Inhibition (C. albicans; [2]) | Corrected % Inhibition (E. coli; [2])
C[C@@H]1[C@H](O)[C@@H](C)/C=C/C=C/C=C/C=C/C=C/C=C/C=C/[C@H](O[C@@H]2O[C@H](C)[C@@H](O)[C@H](N)[C@@H]2O)C[C@@H]2O[C@](O)(C[C@@H](O)C[C@@H](O)[C@H](O)CC[C@@H](O)C[C@@H](O)CC(=O)O[C@H]1C)C[C@H](O)[C@H]2C(=O)O [Amphotericin B, amphotericin B] | 15.1% |  |  |  | 
C[C@@H]1C/C=C/C=C/C=C/C=C/[C@H](O[C@@H]2O[C@H](C)[C@@H](O)[C@H](N)[C@@H]2O)C[C@@H]2O[C@](O)(C[C@@H](O)C[C@H]3O[C@@H]3/C=C/C(=O)O1)C[C@H](O)[C@H]2C(=O)O [Natamycin, natamycin] |  | 77.9% | 0.3% |  | 
C[C@@H]1[C@H](O)[C@@H](C)/C=C/C=C/CC/C=C/C=C/C=C/C=C/C(O[C@H]2O[C@H](C)[C@@H](O)[C@H](N)[C@@H]2O)CC2O[C@](O)(CC(O)C(O)CCC(O)CC(O)CC(O)CC(=O)O[C@H]1C)CC(O)C2C(=O)O (stereo partly shown) [Nystatin, nystatin] |  | 76.2% | 9.8% |  | 
candicidin |  |  |  | 62.8% | 12.5%
